Measurements from patent US7767671B2, “3-Quinolinecarbonitrile protein kinase inhibitors” (Wyeth, priority 2004, dated 2010).
pIC50: −log10 of the molar value.

Assays:
[1] = target: T1, Raf and/or Mek kinase (human c-Raf, GST-MEK1) (Homo sapiens, UniProt P04049+Q02750); assay: Raf/Mek kinase cascade assay; type: biochemical; conditions: c-Raf dependent activation of GST-MEK and GST-MAPK, phospho-MAPK ELISA; (a)/(b)/(c) = average of two/three/four runs
T1 construct: Sf9 insect cell lysate containing full length 6his-tagged recombinant human c-Raf; 6His; host or cells: Sf9 insect cells (c-Raf, used as lysate); E. coli (MEK1-GST, GST-MAPK)
T1 sequence (P04049 whole entry): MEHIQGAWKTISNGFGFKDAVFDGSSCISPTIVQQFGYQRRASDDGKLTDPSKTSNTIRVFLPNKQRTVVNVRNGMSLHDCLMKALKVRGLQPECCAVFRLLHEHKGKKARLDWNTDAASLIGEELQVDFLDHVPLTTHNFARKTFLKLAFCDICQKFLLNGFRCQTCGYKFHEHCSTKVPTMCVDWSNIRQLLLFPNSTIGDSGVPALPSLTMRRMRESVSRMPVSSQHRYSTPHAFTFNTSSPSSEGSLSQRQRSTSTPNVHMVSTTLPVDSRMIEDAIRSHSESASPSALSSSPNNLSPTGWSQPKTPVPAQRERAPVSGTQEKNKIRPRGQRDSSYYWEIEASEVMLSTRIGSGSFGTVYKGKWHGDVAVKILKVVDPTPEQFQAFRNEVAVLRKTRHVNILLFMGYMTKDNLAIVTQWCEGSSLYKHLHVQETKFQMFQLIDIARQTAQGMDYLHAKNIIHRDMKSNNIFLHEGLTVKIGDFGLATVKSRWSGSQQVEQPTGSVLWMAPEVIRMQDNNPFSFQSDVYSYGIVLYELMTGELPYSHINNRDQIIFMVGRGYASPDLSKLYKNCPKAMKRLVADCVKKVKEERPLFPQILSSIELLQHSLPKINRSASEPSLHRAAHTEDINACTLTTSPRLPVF
T1 sequence (Q02750 whole entry): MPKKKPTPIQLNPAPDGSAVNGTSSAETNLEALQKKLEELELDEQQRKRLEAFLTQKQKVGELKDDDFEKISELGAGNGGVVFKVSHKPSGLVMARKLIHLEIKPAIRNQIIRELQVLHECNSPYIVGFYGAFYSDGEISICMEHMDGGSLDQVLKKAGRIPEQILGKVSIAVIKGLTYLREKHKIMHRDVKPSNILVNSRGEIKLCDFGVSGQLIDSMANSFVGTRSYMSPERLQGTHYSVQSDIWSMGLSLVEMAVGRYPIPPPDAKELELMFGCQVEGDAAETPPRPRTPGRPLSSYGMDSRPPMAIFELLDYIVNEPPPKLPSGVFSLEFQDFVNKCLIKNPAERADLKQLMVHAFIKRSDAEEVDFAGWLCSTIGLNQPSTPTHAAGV
Protocol: Raf/Mek Kinase Cascade Assay Procedure
(Specific Activity: ˜200 U/ml). Human Non-active Mek-1-GST and human GST-MAP kinase (recombinant proteins produced in E. coli).
Stock Solutions Raf/Mek Cascade Assay:
• 1. Assay Dilution Buffer (ADB): 20 mM MOPS, pH 7.2, 25 mM β-glycerol phosphate, 5 mM EGTA, 1 mM sodium orthovanadate, 1 mM dithiothreitol; • 2. Magnesium/ATP Cocktail: 500 μM cold ATP and 75 mM magnesium chloride in ADB; • 3. Active Kinase: Human Active c-Raf: Use at 0.4 U per assay point; • 4. Non-active GST-MEK1: Use at 0.1 μg per assay point; and • 5. Non-active GST-p42 MAP Kinase: Use at 1.0 μg per assay point. Stock Solutions ELISA: • 1. TBST-Tris (50 mM, pH 7.5), NaCl (150 mM), Tween-20 (0.05%); • 2. Superblock (Pierce); • 3. Anti-GST Ab (Pharmacia); • 4. Anti-Phospho MAPK (Sigma); and • 5. Anti-Mouse Ab/Europium conjugate (Wallac). Assay Procedure: First Stage: c-Raf Dependent Activation of GST-MEK and GST-MAPK • 1. Add […] of ADB per assay (i.e. per well of a 96 well plate); • 2. Add 10 ml of 0.5 mM cold ATP and 75 mM magnesium chloride in ADB; • 3. Add 2 ml of c-Raf (0.4 U/assay), in conjunction with 1.6 ml non-active MEK1 (0.4 […]/assay); • 4. Add 4 ml of non-active GST-p42 MAP Kinase (1.0 mg/assay); • 5. Incubate for 60 minutes at 30° C. in a shaking incubator; • 6. Transfer this mixture to an anti-GST Ab coated 96 well plate (Nunc Immunosorb plates coated o/n with a-GST, then blocked with Pierce Superblock); • 7. Incubate for 60 minutes at 30° C. in a shaking incubator; • 8. Wash 3× with TBST, add Anti-Phospho MAPK (Sigma) (1:3000); • 9. Incubate for 60 minutes at 30° C. in a shaking incubator; • 10. Wash 3× with TBST, add Anti-Mouse Ab/Europium conjugate (Wallac) (1:500); • 11. Incubate for 60 minutes at 30° C. in a shaking incubator; • 12. Wash 3× with TBST, Read plates in Wallac Victor model Plate Reader; and • 13. Collect data analyze in Excel for single point and IC50 determinations.
Single point assay—% inhibition at […] (% Inhibition=1−cpd·treated sample/untreated control). IC50 determinations—done on compounds from single point assays with >80% inhibition. Typically, the Raf/Mek assay is run at compound concentrations from 10 μM to 1 nM in half log dilutions. (% inhibition is determined for each compound concentration). The results obtained measure Raf and/or Mek kinase inhibition, and for representative compounds of this invention are listed in Table 1.

[2] = tested on: Rat2 fibroblasts transformed with v-Src/Hu c-Src fusion gene; assay: Anchorage independent Src-transformed fibroblast proliferation; type: cell-based; conditions: Rattus norvegicus, 120 h, suspension growth, MTS on Day 5, read-out: Src TF prolif IC50
Protocol: Anchorage Independent Src-transformed Fibroblast Proliferation Test Procedure: Rat2 fibroblasts stably transformed with a plasmid containing a CMV promotor controlled v-Src/Hu c-Src fusion gene in which the catalytic domain of human c-Src is inserted in place of the v-Src catalytic domain in the v-Src gene are used for the measurement of src dependent suspension growth. Ultra-low cluster plates (Costar #3474) are seeded with 10,000 cells per well on Day 1.

p60c-src = target: T2, p60c-src (Homo sapiens, UniProt P12931); assay: Src kinase test procedure (ELISA); type: biochemical; conditions: cdc2 substrate peptide, (a) = average of two runs
T2 construct: purchased Upstate Biotechnologies
T2 sequence (P12931 whole entry): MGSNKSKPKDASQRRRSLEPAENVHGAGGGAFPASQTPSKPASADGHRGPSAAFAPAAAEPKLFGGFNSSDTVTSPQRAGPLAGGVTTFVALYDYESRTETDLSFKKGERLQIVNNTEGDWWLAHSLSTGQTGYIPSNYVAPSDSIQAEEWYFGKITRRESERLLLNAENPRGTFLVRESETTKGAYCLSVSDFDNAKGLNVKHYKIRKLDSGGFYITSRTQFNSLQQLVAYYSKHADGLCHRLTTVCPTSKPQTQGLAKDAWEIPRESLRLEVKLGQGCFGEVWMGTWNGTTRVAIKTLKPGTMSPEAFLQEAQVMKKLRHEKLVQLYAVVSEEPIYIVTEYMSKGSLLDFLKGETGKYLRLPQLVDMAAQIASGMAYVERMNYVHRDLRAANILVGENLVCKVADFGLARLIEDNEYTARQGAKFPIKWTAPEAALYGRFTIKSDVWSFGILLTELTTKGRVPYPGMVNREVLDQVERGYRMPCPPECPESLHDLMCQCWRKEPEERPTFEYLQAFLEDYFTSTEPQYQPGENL
Protocol: Src Kinase Test Procedure
Inhibitors of p60^c-src (partially purified preparation purchased from Upstate Biotechnologies) tyrosine kinase activity are analyzed in an Elisa format. The Boehringer Mannheim Tyrosine Kinase Assay Kit (Catalog number 1-534505) with a cdc2 substrate peptide containing Tyr15 is used for the assay. HRP-conjugated anti-phosphotyrosine is used to detect phosphorylated peptide via a color reaction. Conditions recommended by the manufacturer are employed.
Reaction conditions: Five microliter aliquots of each compound prepared fresh at the time of the assay are added as a solution in 10 mM HEPES pH 7.5, 10% DMSO to the reaction well. Thirty-five microliters of reaction mix containing Src, buffer and peptide/bovine serum albumin mix are added to the compound wells and incubated at 30° C. for 10 minutes (reaction buffer: 50 mM Tris HCl pH 7.5, 10 mM MgCl2, 0.1 mM EGTA, 0.5 mM Na3VO4). The reaction is started by addition of 10 microliters of ATP, incubated at 30° C. for 1 hour, and stopped by addition of 20 microliters of 0.5M EDTA. The reaction mixture with the phosphorylated peptide is then transferred to a streptavidin-coated microtiter plate (provided in the kit) and allowed to bind for 20 minutes. Unbound peptide and reaction mixture is decanted and the plate is washed with PBS six times. Horseradish peroxidase-conjugated phosphotyrosine antibody supplied in the kit is incubated with the plate for one hour, then decanted. The plate is again ished with PBS six times. Substrate (provided in the kit) is added and absorbance at 405 nm is measured.
Activity is determined as % inhibition as calculated by the formula: (1−Abs/Abs(max))×100=% inhibition. Where multiple concentrations of the test agent are used, an IC50 (concentration which gives 50% inhibition) could be determined.

HT-29 cells = assay: HT-29 cell proliferation on plastic (MTS); type: cell-based; conditions: Homo sapiens; HT-29 cells on plastic, MTS on day five; read-out: HT-29 prolif IC50
Protocol: Cell Proliferation Test Procedure for Inhibitors of Src Kinase
HT-29 cells: Compound effectiveness at inhibiting cell proliferation on plastic is performed in a 96-well format by plating 5000 cells per well in appropriate medium on day one, followed by compound addition on day 2 in serial two-fold dilutions. On day five, compound is washed away and medium containing MTS reagent (Promega) is added. Relative cell number is determined by reading the absorbance at 490 nm of a dye produced by an NAD-dependent cellular enzymatic reaction.

Structure (SMILES): COc1cc(Nc2c(C#N)cnc3cc(OCCCN4CCC(N5CCCC5)CC4)c(OC)cc23)c(Cl)cc1Cl [Example 34]
- pIC50 [1]: 6.60
- pIC50 [2]: 6.33
- pIC50 (p60c-src): 9.26
- melting point: 108 to 112 °C
- pIC50 (HT-29 cells): 5.59
